According to ChEMBL document CHEMBL6120985, “Discovery of a potent PARP1 PROTAC as a chemosensitizer for the treatment of colorectal cancer” (Eur J Med Chem, 2025):
Active and inactive are the calls of the source. No cut-off for these calls is given here.

Key:
HCT-116 [1] = assay: Induction of apoptosis in human HCT-116 cells assessed as necrotic cells at 1 uM measured after 72 hrs in presence of SN-38 by annexin V/FITC and PI staining based flow cytometry analysis (reference value: 0.16%); format: functional
[2] = target: T1, Protein cereblon/Poly [ADP-ribose] polymerase 2 (Homo sapiens, UniProt Q9UGN5+Q96SW2); assay: PROTAC activity at CRBN/PARP2 in human HCT-116 cells assessed as maximum degradation of PARP2 relative to control; format: cell-based
Target sequence in this assay (Q96SW2 whole entry, looked up): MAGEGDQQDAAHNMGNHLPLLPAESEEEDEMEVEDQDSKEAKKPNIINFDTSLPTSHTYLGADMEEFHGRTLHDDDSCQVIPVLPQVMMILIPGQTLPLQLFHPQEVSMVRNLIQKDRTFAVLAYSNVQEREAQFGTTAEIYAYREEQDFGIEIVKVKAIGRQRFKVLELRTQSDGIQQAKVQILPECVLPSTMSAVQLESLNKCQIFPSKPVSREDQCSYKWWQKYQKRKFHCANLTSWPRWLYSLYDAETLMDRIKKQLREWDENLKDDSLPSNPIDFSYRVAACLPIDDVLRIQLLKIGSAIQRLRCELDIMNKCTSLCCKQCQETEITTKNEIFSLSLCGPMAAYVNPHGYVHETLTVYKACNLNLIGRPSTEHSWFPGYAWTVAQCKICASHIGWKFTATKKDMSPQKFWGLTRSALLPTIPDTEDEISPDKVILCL
Target sequence in this assay (Q9UGN5 whole entry, looked up): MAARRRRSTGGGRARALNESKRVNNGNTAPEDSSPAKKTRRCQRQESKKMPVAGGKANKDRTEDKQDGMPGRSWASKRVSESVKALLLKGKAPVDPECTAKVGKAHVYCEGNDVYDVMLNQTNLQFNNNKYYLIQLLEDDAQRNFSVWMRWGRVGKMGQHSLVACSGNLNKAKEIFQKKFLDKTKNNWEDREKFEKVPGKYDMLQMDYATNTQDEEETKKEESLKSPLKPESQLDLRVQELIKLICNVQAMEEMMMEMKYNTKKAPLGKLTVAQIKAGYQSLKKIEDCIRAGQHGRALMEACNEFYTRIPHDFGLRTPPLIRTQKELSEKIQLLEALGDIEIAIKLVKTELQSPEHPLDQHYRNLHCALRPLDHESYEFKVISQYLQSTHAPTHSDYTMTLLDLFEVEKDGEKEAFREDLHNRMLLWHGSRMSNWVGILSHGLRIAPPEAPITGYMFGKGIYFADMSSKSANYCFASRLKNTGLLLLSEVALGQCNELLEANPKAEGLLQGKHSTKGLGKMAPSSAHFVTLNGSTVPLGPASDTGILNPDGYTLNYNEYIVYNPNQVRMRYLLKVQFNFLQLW

HCT-116 [3] = assay: Downregulation of HSPA2 level in human HCT-116 cells at 1 uM in presence of SN-38 by KEGG enrichment analysis; format: functional, cell-based
[4] = target: T1, Protein cereblon/Poly [ADP-ribose] polymerase 2; assay: PROTAC activity at CRBN/PARP2 in human HCT-116 cells assessed as degradation of PARP2; format: cell-based
Target sequence in this assay (Q9UGN5 whole entry): as the sequence (Q9UGN5 whole entry, looked up) above
Target sequence in this assay (Q96SW2 whole entry): as the sequence (Q96SW2 whole entry, looked up) above

HCT-116 [5] = assay: Downregulation of KRT1 level in human HCT-116 cells at 1 uM in presence of SN-38 by KEGG enrichment analysis; format: functional, cell-based
HCT-116 [6] = assay: Effect on DNA-PKcs protein level in human HCT-116 cells at 1 uM in presence of SN-38 by Western blot analysis; format: functional, cell-based
[7] = target: T2, Protein cereblon/Poly [ADP-ribose] polymerase 1 (Homo sapiens, UniProt P09874+Q96SW2); assay: PROTAC activity at CRBN/PARP1 in human HCT-116 cells assessed as degradation of PARP1 at 1 uM in presence of thalidomide; format: cell-based
Target sequence in this assay (P09874 2-1014 limits assumed): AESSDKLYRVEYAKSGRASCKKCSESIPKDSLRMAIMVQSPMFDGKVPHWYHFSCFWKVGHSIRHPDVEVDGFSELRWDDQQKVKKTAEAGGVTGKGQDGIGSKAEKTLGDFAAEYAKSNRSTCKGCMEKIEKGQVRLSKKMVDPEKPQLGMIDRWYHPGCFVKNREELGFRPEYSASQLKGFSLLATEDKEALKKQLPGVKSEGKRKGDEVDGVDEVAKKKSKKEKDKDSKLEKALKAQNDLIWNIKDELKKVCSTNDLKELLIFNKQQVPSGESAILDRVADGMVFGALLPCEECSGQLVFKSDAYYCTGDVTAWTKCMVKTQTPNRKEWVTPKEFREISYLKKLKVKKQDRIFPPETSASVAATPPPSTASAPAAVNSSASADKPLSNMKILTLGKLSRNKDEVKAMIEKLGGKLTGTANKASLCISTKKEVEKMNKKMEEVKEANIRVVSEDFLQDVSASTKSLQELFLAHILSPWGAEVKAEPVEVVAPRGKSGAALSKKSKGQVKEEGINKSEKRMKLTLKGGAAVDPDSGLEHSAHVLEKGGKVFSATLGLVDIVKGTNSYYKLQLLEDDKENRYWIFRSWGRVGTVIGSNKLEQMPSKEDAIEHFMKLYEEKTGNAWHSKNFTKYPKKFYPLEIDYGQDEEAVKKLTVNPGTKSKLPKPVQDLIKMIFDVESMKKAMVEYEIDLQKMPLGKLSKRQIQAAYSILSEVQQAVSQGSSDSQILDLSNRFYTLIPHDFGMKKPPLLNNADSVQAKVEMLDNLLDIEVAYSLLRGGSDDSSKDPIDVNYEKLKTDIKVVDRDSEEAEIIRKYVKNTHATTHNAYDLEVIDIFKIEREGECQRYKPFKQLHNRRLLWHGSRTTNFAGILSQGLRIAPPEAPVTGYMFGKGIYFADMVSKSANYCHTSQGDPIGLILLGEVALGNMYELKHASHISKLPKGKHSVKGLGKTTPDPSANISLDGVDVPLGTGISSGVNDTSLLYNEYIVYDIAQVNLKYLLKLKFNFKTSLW
Target sequence in this assay (Q96SW2 whole entry partner): as the sequence (Q96SW2 whole entry, looked up) above

HCT-116 [8] = assay: Induction of apoptosis in human HCT-116 cells assessed as viable cells at 1 uM measured after 72 hrs by annexin V/FITC and PI staining based flow cytometry analysis (reference value: 89.6%); format: functional; conditions: read-out: Activity
HCT-116 [9] = assay: Induction of apoptosis in human HCT-116 cells assessed as early apoptotic cells at 1 uM measured after 72 hrs in presence of SN-38 by annexin V/FITC and PI staining based flow cytometry analysis (reference value: 3.43%); format: functional
HCT-116 [10] = assay: Antagonistic antiproliferative activity against human HCT-116 cells assessed as combination index at 2 uM measured after 72 hrs in presence of 1.25 nM of SN-38 by CCK-8 method; format: functional
HCT-116 [11] = assay: Synergistic antiproliferative activity against human HCT-116 cells assessed as combination index at 4 uM measured after 72 hrs in presence of 2.5 nM of SN-38 by CCK-8 method; format: functional
HCT-116 [12] = assay: Synergistic antiproliferative activity against human HCT-116 cells assessed as combination index at 1 uM measured after 72 hrs in presence of 5 nM of SN-38 by CCK-8 method; format: functional
[13] = Cytotoxicity against human BEAS-2B cells assessed as inhibition of cell growth measured after 72 hrs by CCK-8 method; format: toxicity, cell-based
HCT-116 [14] = assay: Induction of apoptosis in human HCT-116 cells assessed as late apoptotic cells at 1 uM measured after 72 hrs in presence of SN-38 by annexin V/FITC and PI staining based flow cytometry analysis (reference value: 6.80%); format: functional
HCT-116 [15] = assay: Synergistic antiproliferative activity against human HCT-116 cells assessed as combination index at 0.5 uM measured after 72 hrs in presence of 5 nM of SN-38 by CCK-8 method; format: functional
HCT-116 [16] = assay: Induction of apoptosis in human HCT-116 cells assessed as viable cells at 1 uM measured after 72 hrs in presence of SN-38 by annexin V/FITC and PI staining based flow cytometry analysis (reference value: 89.6%); format: functional; conditions: read-out: Activity
HCT-116 [17] = assay: Effect on Ku70 protein level in human HCT-116 cells at 1 uM in presence of SN-38 by Western blot analysis; format: functional, cell-based
HCT-116 [18] = assay: Effect on p53 protein level in human HCT-116 cells at 1 uM in presence of SN-38 by Western blot analysis; format: functional, cell-based
[19] = target: T2, Protein cereblon/Poly [ADP-ribose] polymerase 1; assay: PROTAC activity at CRBN/PARP1 in human RKO cells assessed as degradation of PARP1 at upto 10 uM measured after 24 hrs relative to control; format: cell-based
Target sequence in this assay (P09874 2-1014 limits assumed): as the sequence (P09874 2-1014 limits assumed) above
Target sequence in this assay (Q96SW2 whole entry partner): as the sequence (Q96SW2 whole entry, looked up) above

HCT-116 [20] = assay: Downregulation of […] level in human HCT-116 cells at 1 uM in presence of SN-38 by Western blot analysis; format: functional, cell-based
HCT-116 [21] = assay: Synergistic antiproliferative activity against human HCT-116 cells assessed as combination index at 0.5 uM measured after 72 hrs in presence of 1.25 nM of SN-38 by CCK-8 method; format: functional
[22] = target: T2, Protein cereblon/Poly [ADP-ribose] polymerase 1; assay: PROTAC activity at CRBN/PARP1 in human HCT-116 cells assessed as maximum degradation of PARP1 relative to control; format: cell-based
Target sequence in this assay (P09874 2-1014 limits assumed): as the sequence (P09874 2-1014 limits assumed) above
Target sequence in this assay (Q96SW2 whole entry partner): as the sequence (Q96SW2 whole entry, looked up) above

[23] = target: T2, Protein cereblon/Poly [ADP-ribose] polymerase 1; assay: PROTAC activity at CRBN/PARP1 in human HCT-116 cells assessed as degradation of PARP1; format: cell-based
Target sequence in this assay (P09874 whole entry): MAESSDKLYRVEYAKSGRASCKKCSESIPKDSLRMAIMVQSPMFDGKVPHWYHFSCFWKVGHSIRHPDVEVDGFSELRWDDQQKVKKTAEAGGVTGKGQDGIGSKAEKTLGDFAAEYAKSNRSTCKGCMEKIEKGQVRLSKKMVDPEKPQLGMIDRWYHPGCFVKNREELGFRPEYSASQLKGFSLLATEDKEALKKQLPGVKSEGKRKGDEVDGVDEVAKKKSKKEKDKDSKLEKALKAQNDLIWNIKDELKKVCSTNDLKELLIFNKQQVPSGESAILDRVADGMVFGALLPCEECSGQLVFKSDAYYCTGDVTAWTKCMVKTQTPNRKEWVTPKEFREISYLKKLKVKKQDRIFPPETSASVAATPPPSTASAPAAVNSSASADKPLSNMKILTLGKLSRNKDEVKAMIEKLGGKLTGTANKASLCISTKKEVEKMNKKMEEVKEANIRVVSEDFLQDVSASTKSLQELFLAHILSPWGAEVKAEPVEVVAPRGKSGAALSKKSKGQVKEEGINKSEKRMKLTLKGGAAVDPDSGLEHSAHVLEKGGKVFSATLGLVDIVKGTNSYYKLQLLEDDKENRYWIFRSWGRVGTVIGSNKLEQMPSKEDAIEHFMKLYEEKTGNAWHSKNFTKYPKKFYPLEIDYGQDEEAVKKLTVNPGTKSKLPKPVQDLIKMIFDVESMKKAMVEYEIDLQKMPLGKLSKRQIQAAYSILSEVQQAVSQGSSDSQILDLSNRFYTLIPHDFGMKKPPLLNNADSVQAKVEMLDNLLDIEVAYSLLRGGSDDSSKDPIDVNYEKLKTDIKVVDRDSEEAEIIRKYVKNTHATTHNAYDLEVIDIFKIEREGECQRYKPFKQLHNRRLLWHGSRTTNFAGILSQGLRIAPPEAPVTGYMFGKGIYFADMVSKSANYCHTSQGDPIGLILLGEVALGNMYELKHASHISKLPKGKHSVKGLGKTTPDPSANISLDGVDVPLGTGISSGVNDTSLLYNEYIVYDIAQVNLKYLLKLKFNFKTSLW
Target sequence in this assay (Q96SW2 whole entry): as the sequence (Q96SW2 whole entry, looked up) above

HCT-116 [24] = assay: Upregulation of HMCN1 level in human HCT-116 cells at 1 uM in presence of SN-38 by KEGG enrichment analysis; format: functional, cell-based
HCT-116 [25] = assay: Antagonistic antiproliferative activity against human HCT-116 cells assessed as combination index at 2 uM measured after 72 hrs in presence of 0.625 nM of SN-38 by CCK-8 method; format: functional
HCT-116 [26] = assay: Upregulation of CHK1 level in human HCT-116 cells at 1 uM in presence of SN-38 by Western blot analysis; format: functional, cell-based
HCT-116 [27] = assay: Effect on Rad51 protein level in human HCT-116 cells at 1 uM in presence of SN-38 by Western blot analysis; format: functional, cell-based
HCT-116 [28] = assay: Induction of apoptosis in human HCT-116 cells assessed as early apoptotic cells at 1 uM measured after 72 hrs by annexin V/FITC and PI staining based flow cytometry analysis (reference value: 3.43%); format: functional
HCT-116 [29] = assay: Downregulation of CDC25 level in human HCT-116 cells at 1 uM in presence of SN-38 by KEGG enrichment analysis; format: functional, cell-based
HCT-116 [30] = assay: Synergistic antiproliferative activity against human HCT-116 cells assessed as combination index at 4 uM measured after 72 hrs in presence of 10 nM of SN-38 by CCK-8 method; format: functional
[31] = target: T2, Protein cereblon/Poly [ADP-ribose] polymerase 1; assay: PROTAC activity at CRBN/PARP1 in human RKO cells assessed as degradation of PARP1 measured after 24 hrs; format: cell-based
Target sequence in this assay (P09874 whole entry): as the sequence (P09874 whole entry) above
Target sequence in this assay (Q96SW2 whole entry): as the sequence (Q96SW2 whole entry, looked up) above

[32] = target: T2, Protein cereblon/Poly [ADP-ribose] polymerase 1; assay: PROTAC activity at CRBN/PARP1 in human HCT-116 cells assessed as degradation of PARP1 at 1 uM in presence of MLN4924; format: cell-based
Target sequence in this assay (P09874 2-1014 limits assumed): as the sequence (P09874 2-1014 limits assumed) above
Target sequence in this assay (Q96SW2 whole entry partner): as the sequence (Q96SW2 whole entry, looked up) above

HCT-116 [33] = assay: Synergistic antiproliferative activity against human HCT-116 cells assessed as combination index at 4 uM measured after 72 hrs in presence of 0.625 nM of SN-38 by CCK-8 method; format: functional
HCT-116 [34] = assay: Upregulation of ATP5PD level in human HCT-116 cells at 1 uM in presence of SN-38 by KEGG enrichment analysis; format: functional, cell-based
HCT-116 [35] = assay: Effect on BRCA protein level in human HCT-116 cells at 1 uM in presence of SN-38 by Western blot analysis; format: functional, cell-based
[36] = target: T2, Protein cereblon/Poly [ADP-ribose] polymerase 1; assay: PROTAC activity at CRBN/PARP1 in human HCT-116 cells assessed as degradation of PARP1 at 1 uM in presence of MG132; format: cell-based
Target sequence in this assay (P09874 2-1014 limits assumed): as the sequence (P09874 2-1014 limits assumed) above
Target sequence in this assay (Q96SW2 whole entry partner): as the sequence (Q96SW2 whole entry, looked up) above

**Q.** Which results are given for NC(=O)c1cccc2cn(-c3ccc([C@@H]4CCCN(CCC5CCN(CCC6CCN(CC7CCN(c8ccc9c(c8)C(=O)N(C8CCC(=O)NC8=O)C9=O)CC7)CC6)CC5)C4)cc3)nc12 (stereo partly specified)?
**A.** Activity (HCT-116 [1]): 10.2%; Emax [2]: 84.8%; Activity (HCT-116 [3]): Active; DC50 [4]: 19.1 µM; Activity (HCT-116 [5]): Active; Activity (HCT-116 [6]): inactive; Activity [7]: inactive; viability at 1 µM (HCT-116 [8]): 83.6%; Activity (HCT-116 [9]): 11.9%; CI (HCT-116 [10]): 1.092; CI (HCT-116 [11]): 0.545; CI (HCT-116 [12]): 0.698; IC50 at 72 h [13]: 8.29 µM; Activity (HCT-116 [14]): 19.7%; CI (HCT-116 [15]): 0.756; viability at 1 µM (HCT-116 [16]): 58.2%; Activity (HCT-116 [17]): inactive; Activity (HCT-116 [18]): inactive; Emax [19]: 95.9%; Activity (HCT-116 [20]): Active; CI (HCT-116 [21]): 0.932; Emax [22]: 86.2%; DC50 [23]: 0.03 µM; Activity (HCT-116 [24]): Active; CI (HCT-116 [25]): 1.241; Activity (HCT-116 [26]): Active; Activity (HCT-116 [27]): inactive; Activity (HCT-116 [28]): 4.03%; Activity (HCT-116 [29]): Active; CI (HCT-116 [30]): 0.538; DC50 [31]: 0.161 µM; Activity [32]: inactive; CI (HCT-116 [33]): 0.567; Activity (HCT-116 [34]): Active; Activity (HCT-116 [35]): inactive; Activity [36]: inactive
